One compound from PubChem BioAssay AID624317 (Sanford-Burnham Center for Chemical Genomics, 2012) can be followed below.

The target of this assay is Probable nicotinate-nucleotide adenylyltransferase (Staphylococcus aureus (strain N315)) (UniProt P65502). The assay is described as follows: inhibitors of S. aureus NadD, dose response, biochemical, colorimetric, uHTS hits (AID 624317). The settings on record: purified NadD enzyme, colorimetric activity assay.

Structures are written as SMILES.

A word on the IC50: it is the point on the concentration scale where inhibition reaches its midpoint.

Chain of Probable nicotinate-nucleotide adenylyltransferase (Staphylococcus aureus (strain N315)) (P65502 whole entry, looked up): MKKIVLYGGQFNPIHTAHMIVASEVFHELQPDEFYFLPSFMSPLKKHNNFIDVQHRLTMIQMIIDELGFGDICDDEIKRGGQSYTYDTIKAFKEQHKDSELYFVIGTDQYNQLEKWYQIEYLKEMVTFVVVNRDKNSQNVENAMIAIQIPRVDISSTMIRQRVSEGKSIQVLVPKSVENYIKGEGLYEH

As for `C[c-]1[c-](C)[c-](C)[c-](C)[c-]1C.[Fe].c1cc2nccc(N3CCCC3)[c-]2c1` (stereo unspecified), the IC50 is 35.9 µM.
